Where two headings read alike, the source gives them in different places.
How the values were obtained:
HMLER-shEcad cells = assay: HMLER-shEcad viability with co-incubated necroptosis/apoptosis inhibitors; format: cell-based, human; conditions: 20 μM necrostatin-1 or 5 μM z-VAD-FMK (FIG. 9C, 9D)
[1] = system: HMLER-shEcad mammospheres; assay: Tumoursphere formation and viability assay (TOX8); format: cell-based, human; conditions: for decrease in activity, two-dimensional versus mammospheres: HMLER-shEcad 2D IC50 versus mammosphere IC50
[2] = Tryptophan fluorescent binding assay, POPC vesicles; conditions: 50 μM peptide, PBS pH 7.4, lipid per peptide
Summary of the method: (§1)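 Peptide fixed at 50 μM, titrated with POPC or 3POPC/1POPG large unilamellar vesicles (100 nm extruded; 0-5000 μM lipid) in PBS pH 7.4. Tryptophan fluorescence (ex 280, em 300-450 nm) read after 60 min; lipid concentration giving 50% binding reported as lipid/peptide ratio.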

[3] = Tryptophan fluorescent binding assay, 3POPC/1POPG vesicles; conditions: 50 μM peptide, PBS pH 7.4, lipid per peptide
Summary of the method: as §1

[4] = ANTS/DPX liposome leakage assay, POPC vesicles; format: biochemical; conditions: 0.5 mM vesicles; for Peptide Concentration-induced 50% ANTS/DPX leakage at pH 4.8, POPC Vesicle: pH 4.8, lipid per peptide; for Peptide Concentration-induced 50% ANTS/DPX leakage at pH 7.4, POPC Vesicle: pH 7.4, lipid per peptide
Summary of the method: (§2)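 LUVs (100 nm extruded) of POPC or POPC:POPG 3:1, loaded with 5 mM ANTS/12.5 mM DPX, used at 0.5 mM lipid with peptide 0–20 μM in PBS pH 7.4 or HCl-adjusted PBS pH 4.8. Leakage read after 3 h (ex 350/em 510 nm) against 10% Triton maximum; 50% leakage expressed as lipid per peptide.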

[5] = ANTS/DPX liposome leakage assay, 3POPC/1POPG vesicles; format: biochemical; conditions: for Peptide Concentration-induced 50% ANTS/DPX leakage at pH 4.8, 3POPC/1POPG Vesicle / Peptide Concentration-induced 50% ANTS/DPX leakage at pH 7.4, 3POPC/1POPG Vesicle: 0.5 mM vesicles; for Peptide Concentration-induced 50% ANTS/DPX leakage at pH 4.8, 3POPC/1POPG Vesicle: pH 4.8, lipid per peptide; for Peptide Concentration-induced 50% ANTS/DPX leakage at pH 7.4, 3POPC/1POPG Vesicle: pH 7.4, lipid per peptide
Summary of the method: as §2

[6] = system: HEK293T (human embryonic kidney cell); assay: cells; conditions: 72 h
[7] = system: HMLER (human breast cancer bulk cell); assay: cells; conditions: 72 h
Summary of the method: (§3)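 MTT viability after 72 h exposure to 0–100 μM compound (final DMSO 0.5% or 0%), 5×10^3 cells/well; HMLER lines and MCF-10A in MEGM, U2OS in DMEM with 10% FBS. A550 normalized to matching vehicle controls; IC50 interpolated from dose–response curves.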

[8] = system: HMLER-shEcad (human breast cancer stem cell); assay: cells
Summary of the method: as §3

[9] = system: MCF-10A (human breast epithelial cell); assay: cells; conditions: 72 h
Summary of the method: as §3

[10] = system: U2OS (human bone osteosarcoma); conditions: 72 h
Summary of the method: as §3

Structure (SMILES)	cell viability on co-incubation with necrostatin or z-VAD-FMK (HMLER-shEcad cells)	decrease in activity, two-dimensional versus mammospheres [1]	Lipid Concentration-induced 50% Peptide Binding, POPC Vesicle [2]	Lipid Concentration-induced 50% Peptide Binding, 3POPC/1POPG Vesicle [3]	Peptide Concentration-induced 50% ANTS/DPX leakage at pH 4.8, POPC Vesicle [4]	Peptide Concentration-induced 50% ANTS/DPX leakage at pH 7.4, POPC Vesicle [4]	Peptide Concentration-induced 50% ANTS/DPX leakage at pH 4.8, 3POPC/1POPG Vesicle [5]	Peptide Concentration-induced 50% ANTS/DPX leakage at pH 7.4, 3POPC/1POPG Vesicle [5]	other results
CC(C)C[C@@H](NC(=O)CN)C(=O)N[C@H](CC(C)C)C(=O)N[C@H](CCC(=O)O)C(=O)N[C@H](CC(C)C)C(=O)N[C@H](CC(C)C)C(=O)N[C@H](CCC(=O)O)C(=O)N[C@H](CC(C)C)C(=O)N[C@H](CC(C)C)C(=O)N[C@H](CC(C)C)C(=O)N[C@H](CCCCN)C(=O)N[C@H](C)C(=O)N[C@H](C)C(=O)NCC(=O)N[C@H](Cc1c[nH]c2ccccc12)C(N)=O [D-form EEK]	cannot be improved	–	–	–	–	–	–	–	–
COc1cccc2c1C(=O)c1c(O)c3c(c(O)c1C2=O)C[C@@](O)(C(=O)CO)C[C@@H]3O[C@H]1C[C@H](N)[C@H](O)[C@H](C)O1 [Doxorubicin, doxorubicin, reference compound]	can be dramatically improved	1,700 fold	–	–	–	–	–	–	–
CC(C)C[C@H](NC(=O)CN)C(=O)N[C@@H](CC(C)C)C(=O)N[C@@H](CCC(=O)O)C(=O)N[C@@H](CC(C)C)C(=O)N[C@@H](CC(C)C)C(=O)N[C@@H](CCC(=O)O)C(=O)N[C@@H](CC(C)C)C(=O)N[C@@H](CC(C)C)C(=O)N[C@@H](CC(C)C)C(=O)N[C@@H](CCCCN)C(=O)N[C@@H](C)C(=O)N[C@@H](C)C(=O)NCC(=O)N[C@@H](Cc1c[nH]c2ccccc12)C(N)=O [EEK]	cannot be improved	–	0.48 L/P	4.50 L/P	39 L/P	730 L/P	386 L/P	657 L/P	liposome leakage activity from anionic vesicle at pH 4.8 (in words) ([5]; anionic versus zwitterionic vesicle, pH 4.8): relatively higher liposome leakage activity
CC(C)C[C@H](NC(=O)CN)C(=O)N[C@@H](CC(C)C)C(=O)N[C@@H](CCCCN)C(=O)N[C@@H](CC(C)C)C(=O)N[C@@H](CC(C)C)C(=O)N[C@@H](CCC(=O)O)C(=O)N[C@@H](CC(C)C)C(=O)N[C@@H](CC(C)C)C(=O)N[C@@H](CC(C)C)C(=O)N[C@@H](CCC(=O)O)C(=O)N[C@@H](C)C(=O)N[C@@H](C)C(=O)NCC(=O)N[C@@H](Cc1c[nH]c2ccccc12)C(N)=O [KEE]	–	–	0.20 L/P	0.20 L/P	97 L/P	626 L/P	108 L/P	657 L/P	IC50 [6]: 11.1 ± 1.84 µM; IC50 [7]: 3.75 ± 0.78 µM; IC50 ([8]; 72 h): 2.05 ± 0.21 µM; IC50 [9]: ≥ 100 µM; IC50 [10]: 49.4 ± 13.3 µM
CC[C@@H](C(=O)[C@@H](C)[C@@H](O)[C@H](C)[C@@H]1O[C@@H]([C@@H](CC)C(=O)O)CC[C@@H]1C)[C@H]1O[C@]2(C=C[C@@H](O)[C@]3(CC[C@@](C)([C@H]4CC[C@](O)(CC)[C@H](C)O4)O3)O2)[C@H](C)C[C@@H]1C [Salinomycin, salinomycin, reference compound]	–	63 fold	–	–	–	–	–	–	IC50 ([6]; Homo sapiens, HEK-293T, read-out: IC50 HEK293T): 0.41 ± 0.1 µM; IC50 ([7]; Homo sapiens, read-out: IC50 HMLER): 0.37 ± 0.08 µM; IC50 ([8]; Homo sapiens, 72 h, read-out: IC50 HMLER-shEcad): 0.92 ± 0.28 µM; IC50 ([8]; Homo sapiens, read-out: IC50 against two-dimensional HMLER-shEcad): 0.37 ± 0.0005 µM; IC50 ([9]; Homo sapiens, MCF-10A, read-out: IC50 MCF-10A): 9.76 ± 2.28 µM; IC50 ([1]; Homo sapiens, read-out: IC50 in mammospheres): 22 ± 5 µM
